Laboratory results reported in patent publication US20100168067A1, “BIOMARKERS FOR BISPHOSPHONATE-RESPONSIVE BONE DISORDERS” (UCL BUSINESS PLC, priority 2006, published 2010).

Tested on: total hip mineralisation in subjects treated for OP
[1] = response by genotype TT vs TG/GG at rs2297480, annualised change in total hip densitometry, 95% CI in brackets

Description: Genetic samples were obtained from subjects enrolled in an ongoing clinical programme for treatment of OP through the use of regular intravenous Pamidronate (30 mg three monthly).
By such methodology, 53 subjects (each with two densitometric estimates taken in the first 24 month of Pamidronate therapy) were respectively assigned drug response phenotypes according to their display of ongoing demineralisation (‘response failure’) or stable or improving mineralising (‘response success’). This was achieved by comparison of derived annualised rates of change in projected densitometric estimates of total hip mineralisation.
DNA was extracted from blood samples using standard organic phase methods and PCR amplification and DNA sequencing was carried out using standard protocols (dye-terminator sequencing using an ABI3100 automated DNA sequencer).

NCCC(O)(P(=O)(O)O)P(=O)(O)O [Pamidronate]
number of subjects with 'response failure' (ongoing demineralisation) (TT genotype at rs2297480, intravenous Pamidronate 30 mg three monthly, first 24 months, 53 subjects): 2 | odds ratio for the >-2.7 cutoff [1]: 12.0833 (95% CI: 2.2961 to 63.5874) | odds ratio for the pos/neg cutoff [1]: 3.1818 (95% CI: 1.0192 to 9.9327)
